According to BindingDB's records for doi:10.1016/j.bmcl.2014.06.082 (Friedrich Alexander University, 2014):

Biological target: T1, G protein-coupled receptor (Human cytomegalovirus, UniProt Q9IP65)
T1 sequence (Q9IP65 whole entry): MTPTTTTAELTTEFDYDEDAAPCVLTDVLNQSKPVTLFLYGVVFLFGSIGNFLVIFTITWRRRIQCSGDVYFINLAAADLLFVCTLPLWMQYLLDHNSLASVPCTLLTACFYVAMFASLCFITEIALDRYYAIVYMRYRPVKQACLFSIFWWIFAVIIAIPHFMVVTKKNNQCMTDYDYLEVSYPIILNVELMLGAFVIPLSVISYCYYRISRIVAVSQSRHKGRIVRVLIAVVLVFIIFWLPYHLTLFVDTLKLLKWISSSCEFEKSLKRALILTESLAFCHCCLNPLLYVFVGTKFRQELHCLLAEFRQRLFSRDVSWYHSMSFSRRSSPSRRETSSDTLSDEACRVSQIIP
Assay: Allosteric modulatory activity at FLAG-tagged human cytomegalovirus US28 receptor delta300 mutant expressed in HEK293T cells by PathDetectElk1 assay

Row | SMILES | EC50
1 | CCCCCCCCCC(=O)N(CCN(C)C)CC1(C)Cc2ccccc2C(=O)N1 (configuration not stated) | < 10 µM
2 | N#CC(CCCN1CCC(O)(c2ccc(Cl)cc2)CC1)(c1ccccc1)c1ccccc1 [5-[4-(4-Chloro-phenyl)-4-hydroxy-piperidin-1-yl]-2,2-diphenyl-pentanenitrile] | < 10 µM
